Measurements: ChEMBL document CHEMBL1151018, “Studies On uro'gen III synthase with modified bilanes” (Bioorg Med Chem Lett, 1994)
Calls of active or inactive are those of the source. The rule behind the calls is not given here.

Key:
[1] = target: T1, Uroporphyrinogen-III synthase (Homo sapiens) (UniProt P10746); test: Compound was tested for its activity as substrate of Uroporphyrinogen III synthase; Yes
T1 sequence (whole entry): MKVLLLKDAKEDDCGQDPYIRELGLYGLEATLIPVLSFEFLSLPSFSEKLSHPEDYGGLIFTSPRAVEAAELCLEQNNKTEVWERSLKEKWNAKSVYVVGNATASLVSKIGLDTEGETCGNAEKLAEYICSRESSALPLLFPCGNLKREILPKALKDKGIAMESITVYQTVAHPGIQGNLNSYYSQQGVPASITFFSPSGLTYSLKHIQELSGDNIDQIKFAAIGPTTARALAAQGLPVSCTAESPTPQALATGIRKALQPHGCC

[2] = target: T1, Uroporphyrinogen-III synthase (Homo sapiens); test: Compound was tested for its activity as inhibitor of Uroporphyrinogen III synthase; Yes
[3] = target: T1, Uroporphyrinogen-III synthase (Homo sapiens); test: Compound was tested for its activity as substrate of Uroporphyrinogen III synthase; Poor substrate

SMILES	Activity [1]	Activity [2]	further results
CC(O)c1[nH]c(Cc2[nH]c(Cc3[nH]c(Cc4[nH]cc(CCC(=O)O)c4CC(=O)O)c(CCC(=O)O)c3CC(=O)O)c(CCC(=O)O)c2CC(=O)O)c(CCC(=O)O)c1CC(=O)O (configuration not stated)	–	Active	–
Cn1c(Cc2[nH]cc(CCC(=O)O)c2CC(=O)O)c(CCC(=O)O)c(CC(=O)O)c1Cc1[nH]c(Cc2[nH]c(CO)c(CC(=O)O)c2CCC(=O)O)c(CC(=O)O)c1CCC(=O)O	–	Active	–
Cc1c(CCC(=O)O)c[nH]c1Cc1[nH]c(Cc2[nH]c(Cc3[nH]c(CO)c(CC(=O)O)c3CCC(=O)O)c(CC(=O)O)c2CCC(=O)O)c(CC(=O)O)c1CCC(=O)O	–	–	Activity [3]: (+)
Cn1cc(CCC(=O)O)c(CC(=O)O)c1Cc1[nH]c(Cc2[nH]c(Cc3[nH]c(CO)c(CC(=O)O)c3CCC(=O)O)c(CC(=O)O)c2CCC(=O)O)c(CC(=O)O)c1CCC(=O)O	–	Active	–
CCc1c[nH]c(Cc2[nH]c(Cc3[nH]c(Cc4[nH]c(CO)c(CC(=O)O)c4CCC(=O)O)c(CC(=O)O)c3CCC(=O)O)c(CC(=O)O)c2CCC(=O)O)c1CC(=O)O	Active	–	–

Continued, in another order:

Activity [1]	Activity [2]	SMILES	further results
Active	–	O=C(O)CCCc1c[nH]c(Cc2[nH]c(Cc3[nH]c(Cc4[nH]c(CO)c(CC(=O)O)c4CCC(=O)O)c(CC(=O)O)c3CCC(=O)O)c(CC(=O)O)c2CCC(=O)O)c1CC(=O)O	–
–	Active	Cc1[nH]c(Cc2[nH]c(Cc3[nH]c(Cc4[nH]c(CO)c(CC(=O)O)c4CCC(=O)O)c(CC(=O)O)c3CCC(=O)O)c(CC(=O)O)c2CCC(=O)O)c(CC(=O)O)c1CCC(=O)O	–
Active	–	O=C(O)CCc1c[nH]c(Cc2[nH]c(Cc3[nH]c(Cc4[nH]c(CO)c(CC(=O)O)c4CCC(=O)O)c(CC(=O)O)c3CCC(=O)O)c(CCC(=O)O)c2CC(=O)O)c1CC(=O)O	–
–	Active	O=C(O)CCc1c(Br)[nH]c(Cc2[nH]c(Cc3[nH]c(Cc4[nH]c(CO)c(CC(=O)O)c4CCC(=O)O)c(CC(=O)O)c3CCC(=O)O)c(CC(=O)O)c2CCC(=O)O)c1CC(=O)O	–
–	Active	N#Cc1[nH]c(Cc2[nH]c(Cc3[nH]c(Cc4[nH]c(CO)c(CC(=O)O)c4CCC(=O)O)c(CC(=O)O)c3CCC(=O)O)c(CC(=O)O)c2CCC(=O)O)c(CC(=O)O)c1CCC(=O)O	–
Active	–	O=C(O)CCc1c[nH]c(Cc2[nH]c(Cc3[nH]c(Cc4[nH]c(CO)c(CC(=O)O)c4CCC(=O)O)c(CC(=O)O)c3CCC(=O)O)c(CC(=O)O)c2CCC(=O)O)c1CC(=O)O	–
Active	–	O=C(O)CCc1c(CC(=O)O)c[nH]c1Cc1[nH]c(Cc2[nH]c(Cc3[nH]c(CO)c(CC(=O)O)c3CCC(=O)O)c(CC(=O)O)c2CCC(=O)O)c(CC(=O)O)c1CCC(=O)O	–
